Results on 1 molecule are retold here after US10653679B2, “Compositions and methods for inhibiting bacterial growth” (priority 2015, dated 2020).

In series [1] the test system is PhoPR regulon. Description: microbe, parasite or virus in culture. Type of series: cell-based. The following applies: Mycobacterium tuberculosis.
Another series has as its system Mtb CDC1551(aprA′::GFP). Type of series: cell-based, Mycobacterium tuberculosis.
The test system of series [2] is PhoPR regulon. The experiment in a line: RNA-seq transcriptional profiling. Type of series: cell-based, Mycobacterium tuberculosis.
In series [3] the test system is PhoPR regulon. The experiment in a line: Semi-quantitative real-time PCR of phoP, aprA and pks2. In kind it is cell-based, Mycobacterium tuberculosis. A general note: In qPCR the cycle at which signal appears reflects the starting amount.
Another series deals with Esx-1 protein export. Description: Analysis of Esx-1 protein export (Western blot). Type of series: cell-based, Mycobacterium tuberculosis. The following applies: Mtb Erdman, Sauton's medium, ETZ 80 μM.
The test system of series [4] is PhoPR regulon. The experiment in a line: cells. Type of series: cell-based, Mycobacterium tuberculosis.
For series [5] the following is noted: in animals, previously reported, cited from earlier work.
The subject of a further series is WT Mtb CDC1551. Description: Cytoplasmic pH measurement.
Series [6] concerns Mtb-associated granulomatous pneumonia. The experiment in a line: Lung histopathology of infected mice. The note with it: ETZ 100 mg/kg vs CMC treated animals.
Excerpt: (§1) C57BL/6 mice were infected via the intranasal route with 1000 CFU of the Erdman (aprA′::GFP smyc′::mCherry) dual fluorescent reporter. […] After 4 weeks, the right lung was homogenized and plated for enumeration of the bacterial load and the left lung was fixed in 4% paraformaldehyde before being transferred to 30% sucrose for confocal microscopy and pathology evaluation (FIG. 8). This experiment was repeated and the data from the two independent biological replicates were similar and therefore combined. […] Mice were euthanized by carbon dioxide asphyxiation followed by cervical dislocation.
For histopathology, transverse sections of each lung specimen was fixed in 4% paraformaldehyde for 48 hours, transferred to 50% ethanol for 4 hours, processed routinely, embedded in paraffin, and sectioned at 4 μm, followed by routine hematoxylin and eosin staining.
A further series relates to Mtb lipid synthesis. Description: Analysis of mycobacterial lipids (14C radio-TLC). The note with it: 80 μM ETZ.
The test system of another series is BMDMs. Description: Phagosome acidification (pHrodo labeled beads in BMDMs). The note with it: ETZ up to 100 μM, 4 h pre-treatment, 100 minutes.
Series [7] has as its system PhoPR regulon. Description: Quantitative single-cell imaging of reporter fluorescence in infected mouse lungs. The following applies: ETZ treated lungs, 100 mg/kg oral, 4 weeks.
Excerpt: as §1
PFA fixed mouse lungs were frozen in a 30% sucrose PBS pH 7.4 solution, frozen in a dry ice, ethanol bath, and stored at −80° C. until imaging. At the time of imaging, lungs were thawed and hand-sectioned using a sterile scalpel. Sections were transferred to a microscope slide and 10 μL of ProLong® Gold antifade reagent (Invitrogen) was added. […] Settings for GFP and mCherry fluorescence were held constant through the image acquisition to allow for comparison between samples. For quantification of Mtb reporter fluorescence, bacilli were identified in the mCherry channel and the corresponding sum of GFP fluorescence was measured using the Volocity software package (Perkin Elmer). At least 1500 bacilli were counted across multiple fields of view and lungs.

Entries after “also recorded” stand apart in the source; their conditions may differ. Read-outs that look alike come from different tables or passages of the source. Where only a bound is given, the exact number is not on record here.

In the case of `CCOc1ccc2nc(S(N)(=O)=O)sc2c1` [ETZ, 6-ethoxy-1,3-benzothiazole-2-sulfonamide], the EC50 in the series with PhoPR regulon [1] (144 h, pH 5.7, read-out: EC50 of inhibition of CDC1551(aprA′::GFP) reporter fluorescence) came to 5.6 µM. Further, in the series with PhoPR regulon [1] (pH 7, read-out: EC50 of inhibition of aprA′::GFP reporter fluorescence), the EC50 is 4.7 µM. In addition, the effect on growth result in the series on Mtb CDC1551(aprA′::GFP) (pH 5.7, across the range of ETZ concentrations tested) was “mostly unaffected; also recorded: little effect on growth”. Moreover, the effect on growth entry with Mtb CDC1551(aprA′::GFP) (pH 7.0) is “little effect on growth”. Moreover, the “down-regulation of espR and the espACD operon” value with PhoPR regulon [2] is reported as over 1.5 fold. Moreover, in the series on PhoPR regulon [2] (ETZ at acidic pH), the “down-regulation of mmpL8-pks2 operon (Rv3823c-Rv3825c)” value is about 5 fold. Further, the “regulation of phoP gene expression” value with PhoPR regulon [3] was “did not exhibit substantial differential regulation”. For the same molecule, in the series with PhoPR regulon [3] (both pH 7.0 and 5.7), the “down-regulation of aprA” value was over 5 fold and the “down-regulation of pks2” value is given as over 5 fold. In the series on Esx-1 protein export, the “ESAT-6 and CFP-10 expression” value is reported as “did not affect”; the “secretion of ESAT-6 and CFP-10” value was “strongly and selectively reduced; also recorded: inhibits the secretion”; the “secretion of Sec-secreted protein Mpt-32” value was “did not alter”. In addition, in the series with PhoPR regulon [4], the “inhibition of reporter GFP fluorescence in infected macrophages” value is reported as “significantly down-regulates”. The inhibition at 100 µM in the series on PhoPR regulon [4] (Mycobacterium tuberculosis, BMDM, read-out: inhibition of reporter GFP fluorescence in infected macrophages) was over 90%. Also, the drug-related organ lesions result in series [5] (100 mg/kg) was “no observable drug-related organ lesions”. In series [5], the LD50 was about 1000 mg/kg and the half-life was 2.5 to 5.5 h. Moreover, in the series with WT Mtb CDC1551 (ETZ 80 μM, 6 days, medium pH 5.7), the acidification of cytoplasm is reported as under 0.1 pH units. Besides, in the series with WT Mtb CDC1551 (ETZ 80 μM, 6 days, medium pH 7.0), the “change of cytoplasmic pH” value is recorded as “no change”. Further, the “acidification of cytoplasmic pH” value in the series with WT Mtb CDC1551 (ETZ treated Mtb) is recorded as “slight acidification”. For the same molecule, in series [6], the “percent lung area affected (Mtb-associated granulomatous pneumonia)” value was “did not have a significant reduction; also recorded: no significant difference”. In addition, the “accumulation of sulfolipid (SL)” value in the series with Mtb lipid synthesis is recorded as “not detected; also recorded: lack of accumulation”. Besides, the phagosome acidification result with BMDMs is reported as “did not alter phagosome acidification”. For the same molecule, the “Mtb cells in the bottom decile of GFP fluorescence” value with PhoPR regulon [7] is reported as 49%.

The term EC50 denotes the concentration that produces a half-maximal response. By inhibition is commonly meant the relative decrease from the control value, in per cent. The LD50 is the dose expected to kill half of the subjects tested. By half-life is commonly meant the time needed for the level to fall by half in the phase considered.
